We go through six compounds from patent US7144452B2, “Ink jet black ink, ink set, ink jet recording method, ink cartridge, recording unit, and ink jet recording apparatus” (Canon Kabushiki Kaisha, priority 2004, dated 2006).

Where two headings read alike, the source gives them in different places.

The nature of this data set: Relative permittivity of water-soluble organic solvent (LCR meter). It is filed as physicochemical. The method, then:
The relative permittivity of the water-soluble organic solvent of various types was measured with LCR Meter 4284A (manufactured by Hewlett-Packard Japan, Ltd.) under conditions of a room temperature of 20° C. and a measurement frequency of 1 MHz.

The mark [1] stands for this setting: room temperature of 20° C., 1 MHz.

Consider `CC(O)CO` (stereo not drawn) [1,2-Propanediol], for which, under setting [1], the “Relative permittivity (measurement frequency: 1 MHz)” value (“Relative permittivity” for short) stood at 32.2. Turning to `OCCO` [Ethylene glycol], the “Relative permittivity” value was 38.1. Still for that read-out and setting: as for `OCCCCO` [1,4-Butanediol], the figure is 31.3. `O=C1CCCN1` [2-Pyrrolidone]: the “Relative permittivity” value under setting [1] is 27.5. For the compound `OCC(O)CO` [Glycerol], the “Relative permittivity” value under setting [1] amounted to 43.0. Regarding `OCCCCC(O)CO` (stereo not drawn) [1,2,6-Hexanetriol], the “Relative permittivity” value under setting [1] came to 28.5.
